Data on 13 compounds can be found in ChEMBL document CHEMBL1140063, “Synthesis and biological evaluation of 2-amino-3-(4-chlorobenzoyl)-4-[N-(substituted) piperazin-1-yl]thiophenes as potent allosteric enhancers of the A1 adenosine receptor” (J Med Chem, 2008).

For test [1], the target named is T1, Adenosine receptor A3 (Homo sapiens) (UniProt P0DMS8).
T1 sequence (whole entry): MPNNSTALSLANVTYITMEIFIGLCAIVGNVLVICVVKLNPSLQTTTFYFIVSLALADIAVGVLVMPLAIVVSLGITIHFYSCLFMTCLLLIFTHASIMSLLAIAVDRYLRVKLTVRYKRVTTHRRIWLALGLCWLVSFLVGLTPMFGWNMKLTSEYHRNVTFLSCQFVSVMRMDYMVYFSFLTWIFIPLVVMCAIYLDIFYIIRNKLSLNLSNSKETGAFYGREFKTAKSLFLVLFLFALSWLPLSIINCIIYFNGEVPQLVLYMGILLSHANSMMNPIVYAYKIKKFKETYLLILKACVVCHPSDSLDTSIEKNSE
Put plainly: Displacement of [3H]MRE3008F20 from human adenosine A3 receptor expressed in CHO cells at 10 uM. The format is cell-based.

Test [2] addresses T2, Adenosine receptor A1 (Homo sapiens, UniProt P30542).
T2 sequence (P30542 whole entry): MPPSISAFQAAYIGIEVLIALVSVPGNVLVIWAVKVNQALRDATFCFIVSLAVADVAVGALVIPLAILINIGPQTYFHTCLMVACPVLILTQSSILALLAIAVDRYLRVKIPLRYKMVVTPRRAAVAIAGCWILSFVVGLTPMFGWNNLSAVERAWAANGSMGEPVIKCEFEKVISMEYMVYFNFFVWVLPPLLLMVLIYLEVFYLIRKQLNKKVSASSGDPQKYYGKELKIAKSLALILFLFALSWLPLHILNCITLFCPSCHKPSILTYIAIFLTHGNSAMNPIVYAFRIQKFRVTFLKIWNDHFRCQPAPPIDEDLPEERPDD
Put plainly: Displacement of [3H]DPCPX from human adenosine A1 receptor expressed in CHO cells. The format is cell-based.

Test [3] has as its target T3, Adenosine receptor A1 (Homo sapiens) (UniProt P30542).
T3 sequence (whole entry): T2 sequence (P30542 whole entry)
Put plainly: Displacement of [3H]DPCPX from human adenosine A1 receptor expressed in CHO cells relative to untreated control. It is filed as cell-based.

In test [4] the target is T3, Adenosine receptor A1 (Homo sapiens). The test can be described thus: Activity at human recombinant adenosine A1 receptor expressed in CHO cells assessed as cAMP level at 1 uM. The format is functional, cell-based.
Test [5] has the same target. Put plainly: Displacement of [3H]DPCPX from human adenosine A1 receptor expressed in CHO cells assessed for per milligram of protein. The format is cell-based.
The target is the same in test [6]. Put plainly: Displacement of [3H]DPCPX from human adenosine A1 receptor expressed in CHO cells at 10 uM. It is filed as cell-based.
Test [7] shares this target. The test can be described thus: Displacement of [3H]CCPA from human adenosine A1 receptor expressed in CHO cells relative to untreated control. The format is cell-based.
Test [8] shares this target. The test can be described thus: Activity at human recombinant adenosine A1 receptor expressed in CHO cells assessed as of cAMP level at 0.1 uM. The format is functional, cell-based.
The target is the same in test [9]. The test can be described thus: Activity at human recombinant adenosine A1 receptor expressed in CHO cells assessed as cAMP level at 0.01 uM. It is filed as functional, cell-based.
The target of test [10] is T2, Adenosine receptor A1. The test can be described thus: Displacement of [3H]CCPA from human adenosine A1 receptor expressed in CHO cells. It is filed as cell-based.
The target of test [11] is T3, Adenosine receptor A1 (Homo sapiens). The test can be described thus: Displacement of [3H]CCPA from human adenosine A1 receptor expressed in CHO cells assessed for per milligram of protein. The format is cell-based.
Test [12] has as its target Adenosine receptor A2a (Homo sapiens) (UniProt P29274). Put plainly: Displacement of [3H]ZM241385 from human adenosine A2A receptor expressed in CHO cells at 10 uM. It is filed as cell-based.
Test [13] addresses T3, Adenosine receptor A1 (Homo sapiens). Put plainly: Activity at human recombinant adenosine A1 receptor expressed in CHO cells assessed as cAMP level at 10 uM. It is filed as functional, cell-based.
The target of test [14] is T4, Adenosine receptor A1 (Rattus norvegicus, UniProt P25099).
T4 sequence (P25099 whole entry): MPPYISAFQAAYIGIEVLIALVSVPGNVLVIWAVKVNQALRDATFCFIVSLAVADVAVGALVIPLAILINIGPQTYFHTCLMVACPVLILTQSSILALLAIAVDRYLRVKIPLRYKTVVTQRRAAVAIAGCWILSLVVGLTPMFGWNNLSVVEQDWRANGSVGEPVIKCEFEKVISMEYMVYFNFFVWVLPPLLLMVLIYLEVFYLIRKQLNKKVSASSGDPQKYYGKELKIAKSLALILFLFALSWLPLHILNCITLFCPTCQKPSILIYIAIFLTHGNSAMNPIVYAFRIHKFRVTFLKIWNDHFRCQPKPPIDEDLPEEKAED
The test can be described thus: Displacement of [3H]DPCPX from adenosine A1 receptor in rat membranes. It is filed as cell membranes.

In test [15] the target is T3, Adenosine receptor A1 (Homo sapiens). Put plainly: Displacement of [3H]DPCPX from human adenosine A1 receptor expressed in CHO cells at 100 uM. The format is cell-based.

Chain of Adenosine receptor A2a (Homo sapiens) (P29274 whole entry): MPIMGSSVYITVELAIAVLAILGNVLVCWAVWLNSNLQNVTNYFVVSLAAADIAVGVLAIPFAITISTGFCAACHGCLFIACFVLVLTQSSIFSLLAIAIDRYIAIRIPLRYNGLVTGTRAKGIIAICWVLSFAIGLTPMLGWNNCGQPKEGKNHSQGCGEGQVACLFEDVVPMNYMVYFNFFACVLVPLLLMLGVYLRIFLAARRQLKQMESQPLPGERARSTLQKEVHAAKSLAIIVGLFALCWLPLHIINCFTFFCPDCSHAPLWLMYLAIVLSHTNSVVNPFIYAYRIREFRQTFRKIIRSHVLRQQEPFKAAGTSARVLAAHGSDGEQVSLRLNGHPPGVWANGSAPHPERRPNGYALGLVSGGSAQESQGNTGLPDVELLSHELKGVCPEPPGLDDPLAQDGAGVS

Consider `Nc1scc(CN2CCN(c3ccccc3)CC2)c1C(=O)c1ccc(Cl)cc1`, for which the Activity in [1] was determined as 0%; in [3] it was 1; in test [4], 62%; in test [6], 0%; in test [7], 6.5; in test [8] it was 26%. The figures for the Activity in test [9], in test [12] and in test [13] were 4%, 0% and 78%, respectively. For the same compound, the Kd amounted to 1.9 nM on Adenosine receptor A1 [2] and 1 nM on Adenosine receptor A1 [10]. Besides, the Bmax in test [5] was found to be 3520 fmol; in test [11], 3370 fmol.

Consider `CN1CCN(Cc2csc(N)c2C(=O)c2ccc(Cl)cc2)CC1`, for which the Activity in test [1] was found to be 0%; in test [3], 0.9; in test [4], 1%; in [6], 3%; in [7], 1.1; in test [8], 3%. Further, the Activity is 3% in test [9], 0% in test [12] and 16% in [13]. The Kd on Adenosine receptor A1 [2] is 1.7 nM; on Adenosine receptor A1 [10], 1.2 nM. Besides, the figures for the Bmax in [5] and in [11] were 2990 fmol and 570 fmol, respectively.

Regarding `Cc1sc(N)c(C(=O)c2cccc(C(F)(F)F)c2)c1C`, on Adenosine receptor A1 [14], affinity was put at a Ki of 11000 nM. In addition, the Activity in test [1] is 21%; in test [4], 31%; in test [15] it was 42%; in test [6], 0%; in test [7], 1.3; in [8] it was 3%. Also, the Activity in test [9] was determined as 8%; in test [12] it was 0%; in [13], 57%. Besides, the Bmax in [5] turned out to be 3340 fmol; in test [11], 673 fmol.

With `Nc1scc(CN2CCN(Cc3ccccc3)CC2)c1C(=O)c1ccc(Cl)cc1`, the Activity in test [1] stood at 0%; in [3] it was 1; in test [4] it was 30%; in test [6], 0%; in test [7], 6.1; in [8], 4%. Further, the values for the Activity in test [9], in test [12] and in test [13] were 3%, 0% and 78%, respectively. The Kd on Adenosine receptor A1 [2] came out at 1.7 nM; on Adenosine receptor A1 [10] it was 1.1 nM. Besides, the Bmax in test [5] amounted to 3420 fmol; in [11] it was 3160 fmol.

As to `Nc1scc(CN2CCN(c3ncccn3)CC2)c1C(=O)c1ccc(Cl)cc1`, the Activity worked out at 0% in test [1]; 1 in [3]; 25% in [4]; 0% in test [6]; 2.8 in test [7]; 3% in test [8]. The Activity came to 9% in test [9], 0% in test [12] and 69% in test [13]. Also, the results for the Kd at Adenosine receptor A1 [2] and at Adenosine receptor A1 [10] were 1.7 nM and 1.1 nM, respectively. For the same compound, the values for the Bmax in test [5] and in [11] were 3320 fmol and 1450 fmol, respectively.

In the case of `Cc1ccc(N2CCN(Cc3csc(N)c3C(=O)c3ccc(Cl)cc3)CC2)cc1`, the Activity came to 0% in test [1]; 0.9 in test [3]; 22% in test [4]; 0% in test [6]; 3.9 in test [7]; 3% in test [8]. Also, the Activity in test [9] is 10%; in test [12] it was 0%; in [13] it was 66%. The Kd at Adenosine receptor A1 [2] turned out to be 1.7 nM; at Adenosine receptor A1 [10] it was 1 nM. Besides, the Bmax came to 3060 fmol in test [5] and 2020 fmol in test [11].

For `Nc1scc(CN2CCN(c3ccc4c(c3)OCO4)CC2)c1C(=O)c1ccc(Cl)cc1`, the Activity is 0% in test [1]; 0.9 in [3]; 23% in [4]; 0% in [6]; 1.4 in [7]; 13% in test [8]. In addition, the values for the Activity in test [9], in test [12] and in test [13] were 15%, 0% and 34%, respectively. Besides, the results for the Kd on Adenosine receptor A1 [2] and at Adenosine receptor A1 [10] were 1.9 nM and 1.1 nM, respectively. The Bmax in [5] is 3190 fmol; in test [11], 725 fmol.

Regarding `N#Cc1ccc(N2CCN(Cc3csc(N)c3C(=O)c3ccc(Cl)cc3)CC2)cc1`, the Activity worked out at 20% in [1]; 1 in test [3]; 54% in test [4]; 0% in test [6]; 4.8 in test [7]; 8% in test [8]. The Activity in [9] was 12%; in [12] it was 0%; in [13] it was 72%. Also, the Kd at Adenosine receptor A1 [2] came out at 1.8 nM; at Adenosine receptor A1 [10] it was 1.1 nM. In addition, the Bmax in [5] came out at 3260 fmol; in test [11], 2490 fmol.

Consider `Nc1scc(CN2CCN(c3ccc(C(F)(F)F)cc3)CC2)c1C(=O)c1ccc(Cl)cc1`, for which the Activity in test [1] was 15%; in test [3], 1.1; in [4], 84%; in test [6], 0%; in test [7] it was 7.7; in test [8], 53%. The Activity came out at 10% in test [9], 0% in test [12] and 87% in test [13]. Moreover, the Kd was determined as 1.9 nM on Adenosine receptor A1 [2] and 1 nM on Adenosine receptor A1 [10]. Moreover, the Bmax turned out to be 3680 fmol in test [5] and 3990 fmol in test [11].

`Nc1scc(CN2CCN(c3ccccn3)CC2)c1C(=O)c1ccc(Cl)cc1`: the Activity was 0% in [1]; 0.9 in test [3]; 46% in test [4]; 0% in test [6]; 3.5 in test [7]; 5% in [8]. Besides, the results for the Activity in test [9], in test [12] and in [13] were 9%, 4% and 69%, respectively. Moreover, the Kd was found to be 1.7 nM on Adenosine receptor A1 [2] and 1.2 nM on Adenosine receptor A1 [10]. Besides, the Bmax amounted to 3090 fmol in test [5] and 1810 fmol in test [11].

As for `Nc1scc(CN2CCN(C3CCCCC3)CC2)c1C(=O)c1ccc(Cl)cc1`, the Activity in test [1] was determined as 5%; in test [3], 0.9; in test [4], 13%; in [6] it was 0%; in test [7], 1.2; in test [8], 3%. Moreover, the Activity was found to be 5% in [9], 0% in [12] and 52% in test [13]. Also, the Kd turned out to be 1.9 nM at Adenosine receptor A1 [2] and 1.1 nM on Adenosine receptor A1 [10]. The Bmax is 3200 fmol in test [5] and 622 fmol in [11].

As for `Nc1scc(CN2CCN(c3ccc(F)cc3)CC2)c1C(=O)c1ccc(Cl)cc1`, the Activity in test [1] was determined as 17%; in test [3] it was 1.1; in test [4], 63%; in [6], 0%; in [7] it was 6.7; in test [8], 19%. The Activity in test [9] came to 3%; in [12] it was 0%; in test [13] it was 77%. Further, the figures for the dissociation constant Kd on Adenosine receptor A1 [2] and at Adenosine receptor A1 [10] were 1.8 nM and 1 nM, respectively. In addition, the Bmax came out at 3560 fmol in test [5] and 3470 fmol in test [11].

Regarding `Nc1scc(CN2CCN(c3ccc(Cl)cc3)CC2)c1C(=O)c1ccc(Cl)cc1`, the Activity in test [1] amounted to 6%; in test [3] it was 1.1; in [4] it was 65%; in test [6], 0%; in test [7], 7; in test [8], 48%. For the same compound, the Activity in test [9] came out at 10%; in test [12], 3%; in [13], 78%. Besides, the Kd at Adenosine receptor A1 [2] is 1.8 nM; at Adenosine receptor A1 [10], 1.1 nM. Besides, the Bmax in [5] came out at 3650 fmol; in test [11], 3630 fmol.
